{"source": "paper PMC12785453", "about": "“Oral Fluid Concentrations and Pharmacological Effects of Clephedrone and Methylone in Humans” (International Journal of Molecular Sciences, 2025)", "system": "healthy volunteers", "assay": "Subjective effects, visual analog scales (VAS), clephedrone study", "format": "in vivo, humans", "source_text": "The study evaluating the acute effects of clephedrone was designed as a non-controlled, prospective, observational, and naturalistic study. The procedures and evaluations included in this study have been described in previous studies evaluating other synthetic cathinones (mephedrone, methylone, alpha-PVP, NEP, HEXEN), phenethylamines (2C-B and 2C-E), or synthetic cannabinoids (JWH-122, JWH-210, UR-144).\nThis study consisted of one experimental session in which participants (N = 8; 6 women, 2 men) selected their oral dose of clephedrone based on their drug use experience and preferences. According to their dose selection, 3 women and 1 man ingested 100 mg of clephedrone, while the remaining 3 women and 1 man opted for a higher dose of 150 mg. […] Participants were recruited by word of mouth by the harm reduction organization Energy Control in Barcelona (Associació Benestar i Desenvolupament, ABD).\nSubjective effects were evaluated with visual analog scales (VAS), the short form of the Addiction Research Center Inventory (ARCI), and the Evaluation of Subjective Effects of Substances with Abuse Potential questionnaire (VESSPA-SSE). In addition, the Sensitivity to Drug Reinforcement Questionnaire (SDRQ) and a pharmacological identification class questionnaire were used in the controlled study administering methylone.\nVAS encompassed several adjectives that participants had to rate from “not at all” (0 mm) to “extremely” (100 mm) according to their sensations. This scale included 28 items: intensity, stimulated, high, good effects, bad effects, liking, changes in distances, changes in colors, changes in shapes, changes in lights, hallucinations (seeing lights or spots), hallucinations (seeing things, animals, insects, or people), changes in hearing, hallucinations (hearing sounds or voices), drowsiness, concentration, dizziness, confusion, different or changed body feeling, unreal body feeling, different surroundings, unreal surroundings, open, trust, feeling close to others, I want to be with other people, I want to hug someone, sexual desire, and sexual arousal.\nParticipants included in the naturalistic clephedrone study completed VAS at baseline, 0.50, 1, 1.5, 2, 3, 4, and 5 h, and ARCI and VESSPA at baseline, 1, 2, 3, 4, and 5 h after self-administering clephedrone. In the controlled study, VAS was performed at baseline and 0.25, 0.50, 0.75, 1, 1.5, 2, 3, 4, 6, 8, 10, and 24 h, and ARCI and VESSPA at baseline and 1, 2, 3, 4, 6, 8, and 10 h after administering methylone. Participants completed SDRQ and VAS sexual desire and arousal at baseline, 1 and 10 h, and the pharmacological class identification questionnaire at 8 h.\nFor statistical analysis, values of physiological (SBP, DBP, HR, and T) and subjective effects (VAS, ARCI, and VESSPA-SSE) were baseline–adjusted. Maximum effects (Emax) and the time needed to reach maximum effects (Tmax) were determined, and the area under the curve up to 5 h (AUC0–5h) for clephedrone and up to 6 h (AUC0–6h) for methylone was calculated using the trapezoidal rule. Emax and AUC values are presented as mean ± standard deviation, whereas Tmax is presented in median (range).\nTo find possible significant changes through the time course compared to baseline, a Dunnett multiple comparison test was carried out to compare each time point with baseline in both drug conditions. For clephedrone the comparisons were 0–0.5 h, 0–1 h, 0–1.5 h, 0–2 h, 0–3 h, 0–4 h and 0–5 h, and for methylone this analysis included 0–0.25 h, 0–0.5 h, 0–0.75 h, 0–1 h, 0–1.5 h, 0–2 h, 0–3 h, 0–4 h and 0–6 h. Given their different study designs, no comparative analysis between the time courses of both synthetic cathinones was conducted.", "key": {"[1]": {"conditions": "100 or 150 mg oral, n=8, listed as clephedrone"}, "[2]": {"conditions": "AUC0–5h, 100 or 150 mg oral, n=8"}}, "data": [{"smiles": "CNC(C)C(=O)c1ccc(Cl)cc1", "note": "(centres unmarked) [Clephedrone, 4-chloromethcathinone]", "values": [{"measurement": "Hallucinogenic effects", "setting": "100 or 150 mg oral", "value": "did not evidence any hallucinogenic effects"}, {"measurement": "Tmax of the high-scoring VAS subjective effects", "setting": "100 or 150 mg oral", "value": 3, "unit": "h"}, {"measurement": "VAS Bad effects Emax", "setting": "100 or 150 mg oral, n=8", "value": "0.38 ± 0.74", "unit": "mm"}, {"measurement": "VAS Changes in colors Emax", "setting": "100 or 150 mg oral, n=8", "value": "1.13 ± 2.80", "unit": "mm"}, {"measurement": "VAS Changes in colors Tmax", "setting": "100 or 150 mg oral, n=8", "value": "0.0 (0.0–3.0) h"}, {"measurement": "VAS Changes in distances Emax", "setting": "100 or 150 mg oral, n=8", "value": "1.88 ± 4.55", "unit": "mm"}, {"measurement": "VAS Changes in distances Tmax", "setting": "100 or 150 mg oral, n=8", "value": "0.0 (0.0–2.0) h"}, {"measurement": "VAS Changes in hearing Emax", "setting": "100 or 150 mg oral, n=8", "value": "8.75 ± 16.24", "unit": "mm"}, {"measurement": "VAS Changes in hearing Tmax", "setting": "100 or 150 mg oral, n=8", "value": "0.0 (0.0–4.0) h"}, {"measurement": "VAS Changes in lights Emax", "setting": "100 or 150 mg oral, n=8", "value": "4.75 ± 9.79", "unit": "mm"}, {"measurement": "VAS Changes in lights Tmax", "setting": "100 or 150 mg oral, n=8", "value": "0.0 (0.0–4.0) h"}, {"measurement": "VAS Concentration Emax", "setting": "100 or 150 mg oral, n=8", "value": "22.13 ± 16.65", "unit": "mm"}, {"measurement": "VAS Confusion Emax", "setting": "100 or 150 mg oral, n=8", "value": "3.00 ± 3.82", "unit": "mm"}, {"measurement": "VAS Different or changed body feeling Emax", "setting": "100 or 150 mg oral, n=8", "value": "39.63 ± 22.15", "unit": "mm"}, {"measurement": "VAS Different surroundings Emax", "setting": "100 or 150 mg oral, n=8", "value": "13.75 ± 23.50", "unit": "mm"}, {"measurement": "VAS Dizziness Emax", "setting": "100 or 150 mg oral, n=8", "value": "1.13 ± 1.81", "unit": "mm"}, {"measurement": "VAS Drowsiness Emax", "setting": "100 or 150 mg oral, n=8", "value": "14.25 ± 22.86", "unit": "mm"}, {"measurement": "VAS Feeling close to others Emax", "setting": "100 or 150 mg oral, n=8", "value": "53.38 ± 13.79", "unit": "mm"}, {"measurement": "VAS Good effects Emax", "setting": "100 or 150 mg oral, n=8", "value": "58.50 ± 20.46", "unit": "mm"}, {"measurement": "VAS High Emax", "setting": "100 or 150 mg oral, n=8", "value": "54.25 ± 20.19", "unit": "mm"}, {"measurement": "VAS I want to be with other people Emax", "setting": "100 or 150 mg oral, n=8", "value": "34.63 ± 28.16", "unit": "mm"}, {"measurement": "VAS I want to hug someone Emax", "setting": "100 or 150 mg oral, n=8", "value": "37.63 ± 28.01", "unit": "mm"}, {"measurement": "VAS Intensity Emax", "setting": "100 or 150 mg oral, n=8", "value": "49.13 ± 17.18", "unit": "mm"}, {"measurement": "VAS Liking Emax", "setting": "100 or 150 mg oral, n=8", "value": "59.00 ± 18.56", "unit": "mm"}, {"measurement": "VAS Open Emax", "setting": "100 or 150 mg oral, n=8", "value": "49.25 ± 18.78", "unit": "mm"}, {"measurement": "VAS Sexual arousal Emax", "setting": "100 or 150 mg oral, n=8", "value": "20.13 ± 18.70", "unit": "mm"}, {"measurement": "VAS Sexual desire Emax", "setting": "100 or 150 mg oral, n=8", "value": "20.63 ± 19.60", "unit": "mm"}, {"measurement": "VAS Stimulated Emax", "setting": "100 or 150 mg oral, n=8", "value": "48.75 ± 14.47", "unit": "mm"}, {"measurement": "VAS Trust Emax", "setting": "100 or 150 mg oral, n=8", "value": "53.75 ± 20.62", "unit": "mm"}, {"measurement": "VAS Unreal body feeling Emax", "setting": "100 or 150 mg oral, n=8", "value": "2.13 ± 4.16", "unit": "mm"}, {"measurement": "VAS Unreal surroundings Emax", "setting": "100 or 150 mg oral, n=8", "value": "1.50 ± 4.24", "unit": "mm"}, {"measurement": "VAS Concentration Emax", "setting": "[1]", "value": "exceeding 20 mm"}, {"measurement": "VAS Different or changed body feeling Emax", "setting": "[1]", "value": "> 30", "unit": "mm"}, {"measurement": "VAS Feeling close to others Emax", "setting": "[1]", "value": "exceeding 40 mm"}, {"measurement": "VAS Good effects Emax", "setting": "[1]", "value": "exceeding 40 mm"}, {"measurement": "VAS High Emax", "setting": "[1]", "value": "exceeding 40 mm"}, {"measurement": "VAS I want to be with other people Emax", "setting": "[1]", "value": "> 30", "unit": "mm"}, {"measurement": "VAS I want to hug someone Emax", "setting": "[1]", "value": "> 30", "unit": "mm"}, {"measurement": "VAS Intensity Emax", "setting": "[1]", "value": "exceeding 40 mm"}, {"measurement": "VAS Liking Emax", "setting": "[1]", "value": "exceeding 40 mm"}, {"measurement": "VAS Open Emax", "setting": "[1]", "value": "exceeding 40 mm"}, {"measurement": "VAS Sexual arousal Emax", "setting": "[1]", "value": "exceeding 20 mm"}, {"measurement": "VAS Sexual desire Emax", "setting": "[1]", "value": "exceeding 20 mm"}, {"measurement": "VAS Stimulated Emax", "setting": "[1]", "value": "exceeding 40 mm"}, {"measurement": "VAS Trust Emax", "setting": "[1]", "value": "exceeding 40 mm"}, {"measurement": "VAS Bad effects AUC0-5/6 h", "setting": "[2]", "value": "0.38 ± 0.74", "unit": "mm·h"}, {"measurement": "VAS Changes in colors AUC0-5/6 h", "setting": "[2]", "value": "1.75 ± 4.75", "unit": "mm·h"}, {"measurement": "VAS Changes in distances AUC0-5/6 h", "setting": "[2]", "value": "1.53 ± 3.76", "unit": "mm·h"}, {"measurement": "VAS Changes in hearing AUC0-5/6 h", "setting": "[2]", "value": "12.44 ± 23.03", "unit": "mm·h"}, {"measurement": "VAS Changes in lights AUC0-5/6 h", "setting": "[2]", "value": "6.41 ± 14.74", "unit": "mm·h"}, {"measurement": "VAS Concentration AUC0-5/6 h", "setting": "[2]", "value": "45.34 ± 33.03", "unit": "mm·h"}, {"measurement": "VAS Confusion AUC0-5/6 h", "setting": "[2]", "value": "3.72 ± 5.72", "unit": "mm·h"}, {"measurement": "VAS Different or changed body feeling AUC0-5/6 h", "setting": "[2]", "value": "87.38 ± 52.74", "unit": "mm·h"}, {"measurement": "VAS Different surroundings AUC0-5/6 h", "setting": "[2]", "value": "25.56 ± 52.75", "unit": "mm·h"}, {"measurement": "VAS Dizziness AUC0-5/6 h", "setting": "[2]", "value": "0.97 ± 1.49", "unit": "mm·h"}, {"measurement": "VAS Drowsiness AUC0-5/6 h", "setting": "[2]", "value": "13.25 ± 20.39", "unit": "mm·h"}, {"measurement": "VAS Feeling close to others AUC0-5/6 h", "setting": "[2]", "value": "116.56 ± 42.59", "unit": "mm·h"}, {"measurement": "VAS Good effects AUC0-5/6 h", "setting": "[2]", "value": "129.66 ± 50.22", "unit": "mm·h"}, {"measurement": "VAS High AUC0-5/6 h", "setting": "[2]", "value": "118.63 ± 44.24", "unit": "mm·h"}, {"measurement": "VAS I want to be with other people AUC0-5/6 h", "setting": "[2]", "value": "62.94 ± 49.65", "unit": "mm·h"}, {"measurement": "VAS I want to hug someone AUC0-5/6 h", "setting": "[2]", "value": "80.38 ± 74.45", "unit": "mm·h"}, {"measurement": "VAS Intensity AUC0-5/6 h", "setting": "[2]", "value": "112.03 ± 34.05", "unit": "mm·h"}, {"measurement": "VAS Liking AUC0-5/6 h", "setting": "[2]", "value": "134.09 ± 48.13", "unit": "mm·h"}, {"measurement": "VAS Open AUC0-5/6 h", "setting": "[2]", "value": "112.56 ± 51.16", "unit": "mm·h"}, {"measurement": "VAS Sexual arousal AUC0-5/6 h", "setting": "[2]", "value": "44.44 ± 49.02", "unit": "mm·h"}, {"measurement": "VAS Sexual desire AUC0-5/6 h", "setting": "[2]", "value": "44.69 ± 48.58", "unit": "mm·h"}, {"measurement": "VAS Stimulated AUC0-5/6 h", "setting": "[2]", "value": "104.81 ± 29.68", "unit": "mm·h"}, {"measurement": "VAS Trust AUC0-5/6 h", "setting": "[2]", "value": "126.91 ± 60.79", "unit": "mm·h"}, {"measurement": "VAS Unreal body feeling AUC0-5/6 h", "setting": "[2]", "value": "3.13 ± 6.75", "unit": "mm·h"}, {"measurement": "VAS Unreal surroundings AUC0-5/6 h", "setting": "[2]", "value": "1.50 ± 4.24", "unit": "mm·h"}, {"measurement": "Time of peak pharmacological effects", "setting": "oral", "value": 3, "unit": "h"}]}]}
